From patent US20140199690A1, “MATERIALS AND METHODS FOR HIGH-THROUGHPUT DETERMINATION OF GENOME-WIDE DNA METHYLATION PROFILE” (THE HONG KONG UNIVERSITY OF SCIENCE AND TECHNOLOGY, priority 2013, published 2014)

Legend:
[1] = system: HEK293T cells; assay: FPDM measurement of cellular DNA methylation after 5-aza-dC treatment; assay type: cell-based, human; details: 3 days, 100 ng DNA
[2] = system: murine embryonic fibroblasts cells; details: 5 μM aza-dC; cited from earlier work

## Nc1ncn([C@H]2C[C@H](O)[C@@H](CO)O2)c(=O)n1 [5-aza-dC, 5-aza-2′-deoxycytidine]
[1]; 5 μM 5-aza-dC
  cellular DNA methylation measured by FPDM, relative to untreated control: 67.73±0.53 % of control
[1]; 10 μM 5-aza-dC
  cellular DNA methylation measured by FPDM, relative to untreated control: 45.16±8.84 % of control
[2]
  hypomethylation relative to the untreated control: about 42%
